Source: ChEMBL document CHEMBL4616634, “4β-Hydroxywithanolide E from Goldenberry (Whole Fruits of Physalis peruviana L.) as a Promising Agent against Chronic Obstructive Pulmonary Disease” (J Nat Prod, 2020)
Calls of active or inactive are those of the source. No cut-off for these calls is given here.

Key:
[1] = molecular target: T1, Nuclear factor erythroid 2-related factor 2 (Homo sapiens) (UniProt Q16236); assay: Activation of Nrf2 in human MDA-MB-231 cells assessed as increase in ARE luciferase activity at 0.13 to 2 uM incubated for 16 hrs by luciferase reporter gene assay; assay type: cell-based
T1 sequence (whole entry): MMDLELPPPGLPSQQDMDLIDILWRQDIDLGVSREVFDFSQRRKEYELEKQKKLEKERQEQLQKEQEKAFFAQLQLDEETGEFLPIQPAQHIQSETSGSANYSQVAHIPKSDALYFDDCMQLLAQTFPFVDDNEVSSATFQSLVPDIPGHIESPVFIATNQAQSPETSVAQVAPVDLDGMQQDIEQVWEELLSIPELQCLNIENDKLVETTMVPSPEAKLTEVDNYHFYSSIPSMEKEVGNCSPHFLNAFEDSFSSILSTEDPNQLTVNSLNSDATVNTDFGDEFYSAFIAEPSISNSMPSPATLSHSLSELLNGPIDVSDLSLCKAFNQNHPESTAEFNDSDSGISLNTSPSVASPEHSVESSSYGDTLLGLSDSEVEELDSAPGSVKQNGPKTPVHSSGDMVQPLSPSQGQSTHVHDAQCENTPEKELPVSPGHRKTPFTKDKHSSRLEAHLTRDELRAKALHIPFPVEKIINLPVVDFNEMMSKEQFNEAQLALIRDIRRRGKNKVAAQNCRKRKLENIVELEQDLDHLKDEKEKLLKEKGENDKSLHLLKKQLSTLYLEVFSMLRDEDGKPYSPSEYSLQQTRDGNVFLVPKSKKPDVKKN

[2] = molecular target: T1, Nuclear factor erythroid 2-related factor 2 (Homo sapiens); assay: Activation of Nrf2 in human MDA-MB-231 cells assessed as increase in luciferase activity incubated for 16 hrs by dual luciferase reporter gene assay; assay type: cell-based
BEAS-2B = assay: Cytotoxicity against human BEAS2B cells assessed as decrease in cell viability at < 12.5 uM after 24 hrs by MTT assay; assay type: cell-based
[3] = molecular target: T1, Nuclear factor erythroid 2-related factor 2 (Homo sapiens); assay: Activation of Nrf2 in human BEAS2B cells assessed as increase in NQO1 protein expression incubated for 12 hrs by immunoblot analysis; assay type: cell-based
[4] = molecular target: T1, Nuclear factor erythroid 2-related factor 2 (Homo sapiens); assay: Activation of Nrf2 in human BEAS2B cells assessed as increase in KEAP1 protein expression at 0.25 to 2 uM incubated for 12 hrs by immunoblot analysis; assay type: cell-based
[5] = molecular target: T1, Nuclear factor erythroid 2-related factor 2 (Homo sapiens); assay: Activation of Nrf2 in human BEAS2B cells assessed as increase in NQO1 mRNA expression at 0.5 to 2 uM incubated for 24 hrs by qRT-PCR analysis; assay type: cell-based
[6] = molecular target: T1, Nuclear factor erythroid 2-related factor 2 (Homo sapiens); assay: Activation of Nrf2 in human BEAS2B cells assessed as increase in GCLM mRNA expression at 0.5 to 2 uM incubated for 24 hrs by qRT-PCR analysis; assay type: cell-based
[7] = molecular target: T1, Nuclear factor erythroid 2-related factor 2 (Homo sapiens); assay: Activation of Nrf2 in human BEAS2B cells assessed as increase in Nrf2 translocation in nucleus at 1 uM incubated for 6 hrs by DAPI staining based fluorescence microscopic analysis; assay type: cell-based
[8] = molecular target: T1, Nuclear factor erythroid 2-related factor 2 (Homo sapiens); assay: Activation of Nrf2 in human BEAS2B cells assessed as increase in Nrf2 protein expression at 5 uM incubated for 24 hrs by immunoblot analysis; assay type: cell-based
[9] = molecular target: T1, Nuclear factor erythroid 2-related factor 2 (Homo sapiens); assay: Activation of Nrf2 in human BEAS2B cells assessed as increase in Keap1 protein expression at 5 uM incubated for 24 hrs by immunoblot analysis; assay type: cell-based
Danio rerio = organism: Danio rerio; assay: Inhibition of LPS-induced ROS generation in AB zebra fish oxidative damage model incubated for 24 hrs by DCFH-DA staining based fluorescence assay; assay type: functional, organism-based
RAW264.7 [10] = assay: Cytotoxicity against mouse RAW264.7 cells assessed as reduction in cell viability < 6.25 uM after 24 hrs by MTT assay; assay type: cell-based; conditions: raw264.7, 24 h
RAW264.7 [11] = assay: Inhibition of LPS-induced NFkappaB activation in mouse RAW264.7 cells pre-incubated for 1 hr followed by LPS-stimulation and measured after 16 hrs by dual luciferase reporter gene assay; assay type: cell-based
[12] = molecular target: Transcription factor p65 (Mus musculus) (UniProt Q04207); assay: Inhibition of LPS-induced NFkappaB p65 nucleus translocation in mouse RAW264.7 cells at 2 uM pre-incubated for 1 hr followed by LPS-stimulation and measured after 1 hr by immunoblot analysis; assay type: cell-based
Transcription factor p65 (Mus musculus), sequence (Q04207 whole entry): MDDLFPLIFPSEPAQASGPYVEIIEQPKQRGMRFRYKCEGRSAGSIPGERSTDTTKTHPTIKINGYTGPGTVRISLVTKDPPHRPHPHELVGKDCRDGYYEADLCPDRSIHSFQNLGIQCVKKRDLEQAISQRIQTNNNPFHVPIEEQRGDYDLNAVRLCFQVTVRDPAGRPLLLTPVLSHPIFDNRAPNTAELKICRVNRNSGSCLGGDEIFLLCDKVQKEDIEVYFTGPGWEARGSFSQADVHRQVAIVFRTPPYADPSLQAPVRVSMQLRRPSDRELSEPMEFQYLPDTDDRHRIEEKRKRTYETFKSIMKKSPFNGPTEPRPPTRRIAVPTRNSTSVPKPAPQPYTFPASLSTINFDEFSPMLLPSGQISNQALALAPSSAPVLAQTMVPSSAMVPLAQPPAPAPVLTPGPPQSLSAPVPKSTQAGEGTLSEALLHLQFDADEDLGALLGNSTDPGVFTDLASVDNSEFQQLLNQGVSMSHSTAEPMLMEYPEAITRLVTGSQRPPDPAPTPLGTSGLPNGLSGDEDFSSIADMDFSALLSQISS

RAW264.7 [13] = assay: Inhibition of LPS-induced NFkappaB activation in mouse RAW264.7 cells assessed as increase in IKBalpha protein expression at 0.5 to 4 uM pre-incubated for 1 hr followed by LPS-stimulation and measured after 2 hrs by immunoblot analysis; assay type: cell-based
RAW264.7 [14] = assay: Inhibition of LPS-induced TNFalpha protein expression in mouse RAW264.7 cells at 0.5 to 4 uM preincubated for 1 hr followed by LPS-stimulation and measured after 16 hrs by immunoblot analysis; assay type: functional, cell-based
RAW264.7 [15] = assay: Inhibition of LPS-induced iNOS mRNA expression in mouse RAW264.7 cells at 0.5 to 4 uM preincubated for 1 hr followed by LPS-stimulation and measured after 6 hrs by qRT-PCR analysis; assay type: functional, cell-based
RAW264.7 [16] = assay: Inhibition of LPS-induced IL-6 mRNA expression in mouse RAW264.7 cells at 0.5 to 4 uM preincubated for 1 hr followed by LPS-stimulation and measured after 6 hrs by qRT-PCR analysis; assay type: functional, cell-based
RAW264.7 [17] = assay: Inhibition of LPS-induced IL-1beta mRNA expression in mouse RAW264.7 cells at 0.5 to 4 uM preincubated for 1 hr followed by LPS-stimulation and measured after 6 hrs by qRT-PCR analysis; assay type: functional, cell-based
RAW264.7 [18] = assay: Inhibition of LPS-induced TNFalpha mRNA expression in mouse RAW264.7 cells at 0.5 to 4 uM preincubated for 1 hr followed by LPS-stimulation and measured after 6 hrs by qRT-PCR analysis; assay type: functional, cell-based
RAW264.7 [19] = assay: Inhibition of LPS-induced MMP-9 mRNA expression in mouse RAW264.7 cells at 0.5 to 4 uM preincubated for 1 hr followed by LPS-stimulation and measured after 6 hrs by qRT-PCR analysis; assay type: functional, cell-based
Mus musculus [20] = assay: Antiinflammatory activity in C57BL/6 mouse model of CS-induced pulmonary injury assessed as reduction in hyperplasia of pneumo-cytes in lungs at 2 to 4 mg/kg, ip for 5 days by hematoxylin and eosin staining based fluorescence microscopic analysis; assay type: functional, organism-based
Mus musculus [21] = assay: Antioxidant Activity in C57BL/6 mouse model of CS-induced pulmonary injury assessed as increase in SOD level in lungs at 2 to 4 mg/kg, ip for 5 days; assay type: functional, organism-based
Mus musculus [22] = assay: Antioxidant Activity in C57BL/6 mouse model of CS-induced pulmonary injury assessed as increase in SOD level in serum at 2 to 4 mg/kg, ip for 5 days; assay type: functional, organism-based
Mus musculus [23] = assay: Antioxidant Activity in C57BL/6 mouse model of CS-induced pulmonary injury assessed as decrease in MDA level in serum at 2 to 4 mg/kg, ip for 5 days; assay type: functional, organism-based
Mus musculus [24] = assay: Antiinflammatory activity in C57BL/6 mouse model of CS-induced pulmonary injury assessed as increase in GCLM protein expression in lungs at 2 to 4 mg/kg, ip for 5 days by immunoblot analysis; assay type: functional, organism-based
Mus musculus [25] = assay: Antiinflammatory activity in C57BL/6 mouse model of CS-induced pulmonary injury assessed as reduction in IL-6 protein expression in lungs at 2 to 4 mg/kg, ip for 5 days by ELISA; assay type: functional, organism-based

Structure (SMILES): CC1=C(C)C(=O)O[C@H]([C@](C)(O)[C@]2(O)CC[C@@]3(O)[C@@H]4C[C@H]5O[C@]56[C@@H](O)C=CC(=O)[C@]6(C)[C@H]4CC[C@]23C)C1
- Activity [1]: Active
- Activity [2]: Dose-dependent effect
- Activity (BEAS-2B): Non-Toxic
- Activity [3]: Dose-dependent effect
- Activity [4]: inactive
- Activity [5]: Active
- Activity [6]: Active
- Activity [7]: Active
- Activity [8]: Active
- Activity [9]: inactive
- inhibition (Danio rerio): Dose-dependent effect
- Activity (RAW264.7 [10]): Non-Toxic
- inhibition (RAW264.7 [11]): Dose-dependent effect
- inhibition [12]: Active
- inhibition (RAW264.7 [13]): Active
- inhibition (RAW264.7 [14]): Active
- inhibition (RAW264.7 [15]): Active
- inhibition (RAW264.7 [16]): Active
- inhibition (RAW264.7 [17]): Active
- inhibition (RAW264.7 [18]): Active
- inhibition (RAW264.7 [19]): Active
- Activity (Mus musculus [20]): Active
- Activity (Mus musculus [21]): Active
- Activity (Mus musculus [22]): Active
- Activity (Mus musculus [23]): Active
- Activity (Mus musculus [24]): Active
- Activity (Mus musculus [25]): Active
